Test results as given in paper PMC4672351, “Drug-Drug Interaction Potentials of Tyrosine Kinase Inhibitors via Inhibition of UDP-Glucuronosyltransferases” (Scientific Reports, 2015).
“Also recorded” adds a separate entry of the source.

Assays:
UGT1A6 = target: T1, UGT1A6 (Homo sapiens, UniProt P19224); experiment: Inhibition of 4-MU glucuronidation by recombinant UGT1A6; type: in vitro ADME; settings: recombinant UGT1A6, pH 7.4, probe 4-MU, 100 μM inhibitor, 4-MU substrate, positive control diclofenac, read-out: Remaining activities (%) of UGT1A6
T1 construct: purchased BD Gentest (Woburn, MA); host or cells: baculovirus-infected insect cells
T1 sequence (P19224 27-532): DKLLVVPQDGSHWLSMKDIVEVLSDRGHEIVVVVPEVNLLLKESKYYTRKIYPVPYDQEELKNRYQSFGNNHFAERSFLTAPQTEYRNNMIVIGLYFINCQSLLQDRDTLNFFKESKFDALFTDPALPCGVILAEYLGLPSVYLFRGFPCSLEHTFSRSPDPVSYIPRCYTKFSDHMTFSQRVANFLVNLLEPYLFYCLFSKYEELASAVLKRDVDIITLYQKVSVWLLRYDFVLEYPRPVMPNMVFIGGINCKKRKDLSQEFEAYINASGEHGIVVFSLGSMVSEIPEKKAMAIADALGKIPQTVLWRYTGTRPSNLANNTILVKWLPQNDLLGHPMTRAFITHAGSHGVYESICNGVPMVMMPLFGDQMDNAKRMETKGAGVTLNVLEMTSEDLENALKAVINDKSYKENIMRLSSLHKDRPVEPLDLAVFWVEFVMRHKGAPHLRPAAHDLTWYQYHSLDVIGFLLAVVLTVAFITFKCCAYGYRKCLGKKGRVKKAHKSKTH

UGT1A1 = target: T2, UGT1A1 (Homo sapiens, UniProt P22309); experiment: Inhibition of 4-MU glucuronidation by recombinant UGT1A1; settings: for activity at 120 min, 100 µM: human, recombinant UGT1A1, pH 7.4, probe 4-MU
T2 sequence (P22309 26-533): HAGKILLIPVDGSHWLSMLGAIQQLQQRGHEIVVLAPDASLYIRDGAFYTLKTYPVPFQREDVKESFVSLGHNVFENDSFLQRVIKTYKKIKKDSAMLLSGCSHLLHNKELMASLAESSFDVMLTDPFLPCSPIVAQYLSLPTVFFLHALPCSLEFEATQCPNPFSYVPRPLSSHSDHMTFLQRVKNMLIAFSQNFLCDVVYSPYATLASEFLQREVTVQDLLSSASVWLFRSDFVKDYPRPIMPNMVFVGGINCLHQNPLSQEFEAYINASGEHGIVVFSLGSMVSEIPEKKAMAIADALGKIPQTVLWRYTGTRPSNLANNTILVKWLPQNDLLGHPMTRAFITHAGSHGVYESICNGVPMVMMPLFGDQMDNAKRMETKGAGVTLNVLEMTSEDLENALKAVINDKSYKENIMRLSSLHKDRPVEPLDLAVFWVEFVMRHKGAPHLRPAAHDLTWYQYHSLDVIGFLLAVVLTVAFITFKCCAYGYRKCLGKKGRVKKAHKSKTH

UGT1A7 = target: T3, UGT1A7 (Homo sapiens, UniProt Q9HAW7); experiment: Inhibition of 4-MU glucuronidation by recombinant UGT1A7; settings: for activity at 30 min, 100 µM: human, recombinant UGT1A7, pH 7.4, probe 4-MU
T3 sequence (Q9HAW7 26-530): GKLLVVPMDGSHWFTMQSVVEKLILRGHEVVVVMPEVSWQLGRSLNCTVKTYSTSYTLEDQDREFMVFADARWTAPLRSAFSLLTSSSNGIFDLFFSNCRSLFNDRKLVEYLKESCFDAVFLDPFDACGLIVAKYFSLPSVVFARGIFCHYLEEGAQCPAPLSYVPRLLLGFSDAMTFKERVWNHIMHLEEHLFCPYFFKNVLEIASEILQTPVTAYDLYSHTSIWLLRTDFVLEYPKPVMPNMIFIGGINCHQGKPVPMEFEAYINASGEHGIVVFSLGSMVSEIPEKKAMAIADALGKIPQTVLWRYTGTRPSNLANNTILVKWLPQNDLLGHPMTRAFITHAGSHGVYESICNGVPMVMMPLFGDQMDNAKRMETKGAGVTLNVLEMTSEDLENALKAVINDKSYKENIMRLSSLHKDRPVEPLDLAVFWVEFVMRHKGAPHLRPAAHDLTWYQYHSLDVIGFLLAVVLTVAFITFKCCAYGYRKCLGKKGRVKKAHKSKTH

UGT1A8 = target: T4, UGT1A8 (Homo sapiens, UniProt Q9HAW9); experiment: Inhibition of 4-MU glucuronidation by recombinant UGT1A8; settings: recombinant UGT1A8, pH 7.4, probe 4-MU
T4 sequence (Q9HAW9 26-530): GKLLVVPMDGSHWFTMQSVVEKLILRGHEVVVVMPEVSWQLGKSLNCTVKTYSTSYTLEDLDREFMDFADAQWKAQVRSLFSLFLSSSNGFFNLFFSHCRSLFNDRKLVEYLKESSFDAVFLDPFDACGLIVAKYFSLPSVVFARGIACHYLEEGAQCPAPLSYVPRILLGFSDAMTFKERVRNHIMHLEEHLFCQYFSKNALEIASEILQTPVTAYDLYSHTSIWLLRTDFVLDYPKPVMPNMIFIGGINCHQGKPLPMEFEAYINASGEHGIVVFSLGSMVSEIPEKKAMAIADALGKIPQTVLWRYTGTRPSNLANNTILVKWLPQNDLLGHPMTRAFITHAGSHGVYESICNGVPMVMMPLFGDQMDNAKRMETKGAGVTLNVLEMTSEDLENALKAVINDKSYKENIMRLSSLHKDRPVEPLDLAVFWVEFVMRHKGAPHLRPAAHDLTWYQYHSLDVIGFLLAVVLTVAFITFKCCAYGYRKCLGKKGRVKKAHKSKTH

UGT2B7 = target: T5, UGT2B7 (Homo sapiens, UniProt P16662); experiment: Inhibition of 4-MU glucuronidation by recombinant UGT2B7; settings: recombinant UGT2B7, pH 7.4, probe 4-MU
T5 sequence (P16662 24-529): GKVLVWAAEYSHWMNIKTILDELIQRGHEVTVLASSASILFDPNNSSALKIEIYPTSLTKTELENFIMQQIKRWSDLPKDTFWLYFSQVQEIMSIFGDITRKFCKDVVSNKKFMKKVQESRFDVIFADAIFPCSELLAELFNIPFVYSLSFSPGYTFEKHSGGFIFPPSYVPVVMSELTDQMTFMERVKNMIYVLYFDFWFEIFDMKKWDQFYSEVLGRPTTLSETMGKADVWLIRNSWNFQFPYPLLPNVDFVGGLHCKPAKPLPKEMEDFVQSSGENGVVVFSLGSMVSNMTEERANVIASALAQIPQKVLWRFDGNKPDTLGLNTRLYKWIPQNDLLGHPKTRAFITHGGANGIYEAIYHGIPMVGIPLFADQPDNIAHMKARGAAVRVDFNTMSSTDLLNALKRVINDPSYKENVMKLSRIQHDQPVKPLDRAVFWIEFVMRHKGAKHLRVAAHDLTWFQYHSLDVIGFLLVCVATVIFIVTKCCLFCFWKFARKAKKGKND

Structure (SMILES)	activity at 30 min, 100 µM (UGT1A6) [%]	activity at 120 min, 100 µM (UGT1A1) [%]	IC50 (UGT1A7) [µM]	activity at 30 min, 100 µM (UGT1A7) [%]	activity at 30 min, 100 µM (UGT1A8) [%]	activity at 120 min, 100 µM (UGT2B7) [%]	inhibition type, UGT1A1 (UGT1A1; 4-MU substrate)	inhibition type, UGT1A7 (UGT1A7; 4-MU substrate)
CNC(=O)c1ccccc1Sc1ccc2c(/C=C/c3ccccn3)n[nH]c2c1 [Axitinib, axitinib]	85.8 ± 3.5	56.7 ± 3.4	3.3 ± 0.7	25 ± 2.5	54.6 ± 2.4	55.9 ± 9.7		
CS(=O)(=O)CCNCc1ccc(-c2ccc3ncnc(Nc4ccc(OCc5cccc(F)c5)c(Cl)c4)c3c2)o1 [Lapatinib, lapatinib]	88.4 ± 5.9	30.8 ± 11		37.7 ± 9.3	73.5 ± 10.6	90.5 ± 1	competitive	non-competitive; also recorded: noncompetitive
COc1cc2c(Nc3ccc(Br)cc3F)ncnc2cc1OCC1CCN(C)CC1 [Vandetanib, vandetanib]	55.1 ± 1.1	48.9 ± 4.9	38.9 ± 4.3	22.7 ± 2.7	56 ± 6.3	49.8 ± 3.7		
